Where two headings read alike, the source gives them in different places.
Experiments:
Format in all cases: biochemical
Human PDE4A3 = Human PDE4A3 (Homo sapiens (Human), UniProt P27815); test: PDE4A3 Scintillation Proximity Assay (SPA), inhibition of enzyme activity; conditions: read-out: Human PDE4A FL
Method in brief: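 Recombinant human PDE4A3 expressed in insect cells, purified via Ni-NTA, anti-FLAG and size exclusion. SPA run 30 min at 25 °C in 50 mM Tris pH 7.5, 1.3 mM MgCl2, 0.01% Brij with 1 μM cAMP (20 nM 3H-cAMP), […], ~20% substrate conversion; stopped with yttrium silicate beads.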

Human PDE4B1 = Human PDE4B1 (Homo sapiens (Human), UniProt Q07343, S133E/S654A/S659A/S661A); test: PDE4B1 Scintillation Proximity Assay (SPA), inhibition of enzyme activity; conditions: read-out: Human PDE4B FL
Human PDE4B1, sequence (Q07343 122-736 S133E/S654A/S659A/S661A): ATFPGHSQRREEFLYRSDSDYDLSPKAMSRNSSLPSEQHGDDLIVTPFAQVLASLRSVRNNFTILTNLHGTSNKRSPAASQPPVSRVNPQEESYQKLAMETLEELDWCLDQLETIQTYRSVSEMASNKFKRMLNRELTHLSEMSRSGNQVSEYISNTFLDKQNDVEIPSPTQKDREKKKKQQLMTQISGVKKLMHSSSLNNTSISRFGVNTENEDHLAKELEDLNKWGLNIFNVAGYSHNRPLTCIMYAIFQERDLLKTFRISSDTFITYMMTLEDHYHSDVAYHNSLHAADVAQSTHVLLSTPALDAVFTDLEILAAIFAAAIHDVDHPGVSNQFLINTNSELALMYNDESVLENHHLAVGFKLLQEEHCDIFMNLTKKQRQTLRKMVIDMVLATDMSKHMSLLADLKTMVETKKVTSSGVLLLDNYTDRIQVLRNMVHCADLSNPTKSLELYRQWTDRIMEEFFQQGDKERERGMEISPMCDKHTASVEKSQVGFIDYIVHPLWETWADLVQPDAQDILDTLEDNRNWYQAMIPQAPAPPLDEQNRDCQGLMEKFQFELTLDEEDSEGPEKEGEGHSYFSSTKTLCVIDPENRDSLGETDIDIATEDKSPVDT
Method in brief: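 His-tagged enzyme from baculovirus-infected insect cells, Ni-NTA purified. SPA with 1 μM cAMP (20 nM 3H-cAMP tracer) in 50 mM Tris pH 7.5, 1.3 mM MgCl2, 0.01% Brij, […] PDE4B enzyme for ~20% substrate conversion; 30 min at 25 °C, stopped with yttrium silicate beads, read after 8 h settling.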

Human PDE4C1 = Human PDE4C1 (Homo sapiens (Human), UniProt Q08493); test: PDE4C1 Scintillation Proximity Assay (SPA), inhibition of enzyme activity; conditions: read-out: Human PDE4C FL
Human PDE4C1, sequence (Q08493 2-712): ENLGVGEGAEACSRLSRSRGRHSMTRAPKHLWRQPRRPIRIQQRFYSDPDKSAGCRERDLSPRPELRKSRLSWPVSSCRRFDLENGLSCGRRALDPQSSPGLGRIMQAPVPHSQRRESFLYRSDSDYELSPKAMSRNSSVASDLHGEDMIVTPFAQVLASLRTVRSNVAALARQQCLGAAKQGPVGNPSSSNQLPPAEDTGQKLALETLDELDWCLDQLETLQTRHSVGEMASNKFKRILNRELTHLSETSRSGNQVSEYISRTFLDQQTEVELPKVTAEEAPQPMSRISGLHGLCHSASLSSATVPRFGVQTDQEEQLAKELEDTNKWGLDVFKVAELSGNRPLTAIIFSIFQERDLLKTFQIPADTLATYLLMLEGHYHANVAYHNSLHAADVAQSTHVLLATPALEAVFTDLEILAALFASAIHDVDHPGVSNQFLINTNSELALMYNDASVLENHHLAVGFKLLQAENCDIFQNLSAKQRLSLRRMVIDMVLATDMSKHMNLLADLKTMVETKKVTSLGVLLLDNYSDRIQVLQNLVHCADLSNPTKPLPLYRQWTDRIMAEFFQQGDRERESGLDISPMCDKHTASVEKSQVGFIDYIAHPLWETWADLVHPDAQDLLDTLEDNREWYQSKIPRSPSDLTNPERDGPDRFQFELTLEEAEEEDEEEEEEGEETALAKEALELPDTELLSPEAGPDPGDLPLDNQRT
Method in brief: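 Recombinant insect-cell-expressed human PDE4C1 […] in 50 mM Tris pH 7.5, 1.3 mM MgCl2, 0.01% Brij with 1 μM cAMP (3H-cAMP tracer), ~20% substrate conversion, inhibitor concentration range. Incubated 30 min at 25° C; stopped with yttrium silicate SPA beads, read by scintillation after 8 h settling.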

human PDE4D3 = human PDE4D3 (Homo sapiens (Human), UniProt Q08499); test: PDE4D3 Scintillation Proximity Assay (SPA), inhibition of enzyme activity; conditions: read-out: Human PDE4D FL
human PDE4D3, sequence (Q08499 186-808): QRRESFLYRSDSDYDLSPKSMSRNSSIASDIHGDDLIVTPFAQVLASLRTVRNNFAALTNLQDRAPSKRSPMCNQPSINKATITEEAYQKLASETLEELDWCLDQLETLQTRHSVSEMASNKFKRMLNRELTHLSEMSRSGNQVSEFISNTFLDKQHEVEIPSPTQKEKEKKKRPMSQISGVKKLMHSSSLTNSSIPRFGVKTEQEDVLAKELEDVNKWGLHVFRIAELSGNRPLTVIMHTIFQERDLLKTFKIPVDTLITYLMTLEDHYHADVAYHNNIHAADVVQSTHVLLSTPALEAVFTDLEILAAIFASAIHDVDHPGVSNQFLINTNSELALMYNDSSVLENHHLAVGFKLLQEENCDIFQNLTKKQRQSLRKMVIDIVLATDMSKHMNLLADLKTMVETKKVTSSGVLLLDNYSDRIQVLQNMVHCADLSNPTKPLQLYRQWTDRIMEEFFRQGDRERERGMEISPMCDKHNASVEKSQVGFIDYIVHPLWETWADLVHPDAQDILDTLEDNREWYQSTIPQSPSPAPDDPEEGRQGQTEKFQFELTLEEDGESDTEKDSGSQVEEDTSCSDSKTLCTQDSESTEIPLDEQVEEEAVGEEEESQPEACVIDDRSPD
Method in brief: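 His-tagged human PDE4D3 (aa 50–672), expressed in insect cells, hydrolysed 1 μM cAMP (3H tracer plus cold) for 30 min at 25° C in 50 mM Tris pH 7.5, 1.3 mM MgCl2 and 0.01% Brij. Enzyme level was set for ~20% conversion. Product was read by yttrium silicate SPA beads after 8 h settling.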

[1] = Table 9, geometric mean of 2-9 determinations unless otherwise indicated
[2] = Table 10, geometric mean of 2-9 determinations unless otherwise indicated

Human PDE4A3, sequence (P27815 other isoform, or with tags, fused parts or gaps): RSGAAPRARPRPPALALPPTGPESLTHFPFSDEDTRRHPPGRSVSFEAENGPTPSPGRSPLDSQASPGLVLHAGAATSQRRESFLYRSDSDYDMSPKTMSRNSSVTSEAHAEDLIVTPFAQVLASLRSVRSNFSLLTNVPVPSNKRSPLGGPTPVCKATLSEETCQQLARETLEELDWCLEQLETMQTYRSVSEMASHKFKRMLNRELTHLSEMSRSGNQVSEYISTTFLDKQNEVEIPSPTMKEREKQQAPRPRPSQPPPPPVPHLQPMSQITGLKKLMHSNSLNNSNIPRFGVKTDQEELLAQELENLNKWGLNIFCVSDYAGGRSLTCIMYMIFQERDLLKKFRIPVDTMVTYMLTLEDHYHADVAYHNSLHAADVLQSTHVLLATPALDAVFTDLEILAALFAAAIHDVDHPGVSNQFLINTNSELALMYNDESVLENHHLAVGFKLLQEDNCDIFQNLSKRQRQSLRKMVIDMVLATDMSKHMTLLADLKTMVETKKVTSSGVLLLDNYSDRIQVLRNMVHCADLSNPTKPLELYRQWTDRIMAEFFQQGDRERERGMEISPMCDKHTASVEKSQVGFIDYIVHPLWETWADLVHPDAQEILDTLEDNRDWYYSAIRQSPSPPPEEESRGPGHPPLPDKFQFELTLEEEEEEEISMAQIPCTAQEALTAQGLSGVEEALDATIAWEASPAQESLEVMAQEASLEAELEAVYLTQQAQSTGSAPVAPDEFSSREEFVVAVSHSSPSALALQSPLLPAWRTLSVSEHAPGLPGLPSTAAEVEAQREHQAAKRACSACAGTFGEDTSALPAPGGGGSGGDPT

| Compound | IC50 (Human PDE4A3; [1]) [nM] | IC50 (Human PDE4B1; [1]) [nM] | IC50 (Human PDE4C1; [1]) [nM] | IC50 (human PDE4D3; [1]) [nM] | IC50 (Human PDE4A3; [2]) [nM] | IC50 (Human PDE4B1; [2]) [nM] | IC50 (Human PDE4C1; [2]) [nM] | IC50 (human PDE4D3; [2]) [nM] |
| --- | --- | --- | --- | --- | --- | --- | --- | --- |
| O=C1c2c(-c3cnc4ccoc4c3)c3ncccc3n2CCN1C1CC1 [Example 64, 8-Cyclopropyl-10-(furo[3,2-b]pyridin-6-yl)-7,8-dihydropyrido[2′,3′:4,5]pyrrolo[1,2-a]pyrazin-9(6H)-one] | 3.56 | 11.5 | 37.5 | 458 | – | – | – | – |
| O=C1c2c(-c3ccc4ncnn4c3)c3ncccc3n2CCN1C1CC1 [Example 58, 8-Cyclopropyl-10-([1,2,4]triazolo[1,5-a]pyridin-6-yl)-7,8-dihydropyrido[2′,3′:4,5]pyrrolo[1,2-a]pyrazin-9(6H)-one] | 12.6 | 24 | 62.6 | 624 | – | – | – | – |
| COc1ccc(-c2c3n(c4cccnc24)CCN(C2CC2)C3=O)c(F)c1 [Example 54, 8-Cyclopropyl-10-(2-fluoro-4-methoxyphenyl)-7,8-dihydropyrido[2′,3′:4,5]pyrrolo[1,2-a]pyrazin-9(6H)-one] | 21.2 | 54.6 | 35.8 | 3770 | – | – | – | – |
| O=C1c2c(-c3ccc(F)cc3)c3ncccc3n2CCN1C1CC1 [Example 23, 8-Cyclopropyl-10-(4-fluorophenyl)-7,8-dihydropyrido[2′,3′:4,5]pyrrolo[1,2-a]pyrazin-9(6H)-one] | 13 | 3.13 | 82 | 321 | – | – | – | – |
| O=C1c2c(-c3ccc(Cl)c(F)c3)c3ncccc3n2CCN1c1ncccn1 [Example 74, 10-(4-Chloro-3-fluorophenyl)-8-(pyrimidin-2-yl)-7,8-dihydropyrido[2′,3′:4,5]pyrrolo[1,2-a]pyrazin-9(6H)-one] | 19 | 27 | 52 | 660 | – | – | – | – |
| N#Cc1ccc(-c2c3n(c4cccnc24)CCN(C2CC2)C3=O)cn1 [Example 26, 5-(8-Cyclopropyl-9-oxo-6,7,8,9-tetrahydropyrido[2′,3′:4,5]pyrrolo[1,2-a]pyrazin-10-yl)pyridine-2-carbonitrile] | 8.15 | 2.98 | 14.8 | 138 | – | – | – | – |
| O=C1c2c(-c3ccc(Cl)cc3)c3ncncc3n2CCN1C1CC1 [Example 25, 10-(4-Chlorophenyl)-8-cyclopropyl-7,8-dihydropyrazino[1′,2′:1,5]pyrrolo[3,2-d]pyrimidin-9(6H)-one] | 25 | 48.2 | 100 | 1780 | – | – | – | – |
| O=C1c2c(-c3ccc(Cl)cc3F)c3ncccc3n2CCN1C1CC1 [Example 47, 10-(4-Chloro-2-fluorophenyl)-8-cyclopropyl-7,8-dihydropyrido[2′,3′:4,5]pyrrolo[1,2-a]pyrazin-9(6H)-one] | 2 | 1.14 | 2.88 | 142 | – | – | – | – |
| O=C1c2c(-c3cncnc3)c3ncccc3n2CCN1C1CC1 [Example 55, 8-Cyclopropyl-10-(pyrimidin-5-yl)-7,8-dihydropyrido[2′,3′:4,5]pyrrolo[1,2-a]pyrazin-9(6H)-one] | 222 | 111 | 500 | 3700 | – | – | – | – |
| O=C1c2c(-c3ccc(Cl)cc3)c3cccnc3n2CCN1C1CC1 [Example 9, 5-(4-Chlorophenyl)-7-cyclopropyl-8,9-dihydropyrido[3′,2′: 4,5]pyrrolo[1,2-a]pyrazin-6(7H)-one] | 129 | 298 | 127 | 8190 | – | – | – | – |
| Cc1cc(F)ccc1-c1c2n(c3cccnc13)CCN(C1CC1)C2=O [Example 49, 8-Cyclopropyl-10-(4-fluoro-2-methylphenyl)-7,8-dihydropyrido[2′,3′:4,5]pyrrolo[1,2-a]pyrazin-9(6H)-one] | 2.71 | 5.79 | 9.39 | 395 | – | – | – | – |
| CN(C)S(=O)(=O)c1cccc(-c2c3n(c4cccnc24)CCN(C2CC2)C3=O)c1 [Example 85, 3-(8-Cyclopropyl-9-oxo-6,7,8,9-tetrahydropyrido[2′,3′:4,5]pyrrolo[1,2-a]pyrazin-10-yl)-N,N-dimethylbenzenesulfonamide] | – | – | – | – | 254 | 437 | 4960 | 724 |
| O=C1c2c(-c3cc(F)ccc3F)c3ncccc3n2CCN1C1CC1 [Example 46, 8-Cyclopropyl-10-(2,5-difluorophenyl)-7,8-dihydropyrido[2′,3′:4,5]pyrrolo[1,2-a]pyrazin-9(6H)-one] | 2.29 | 4.04 | 6.98 | 203 | – | – | – | – |

From patent publication US11472805B2, “Tricyclic compounds and their use as phosphodiesterase inhibitors” (Pfizer Inc., priority 2015, dated 2022)
